Data published in ChEMBL document CHEMBL1151408 (J Nat Prod, 1983).

Experiments:
Mus musculus [1] = species: Mus musculus; test: Increase in hepatic ethylmorphine N-demethylase activity in mouse; type: functional
Mus musculus [2] = species: Mus musculus; test: Increase in aryl hydrocarbon hydroxylase activity in mouse; type: functional

`CO[C@H]1/C=C/O[C@@]2(C)Oc3c(C)c(O)c4c(O)c(c(/C=N/N5CCN(C)CC5)c(O)c4c3C2=O)NC(=O)/C(C)=C\C=C\[C@H](C)[C@H](O)[C@@H](C)[C@@H](O)[C@@H](C)[C@H](OC(C)=O)[C@@H]1C` [RIFAMPIN] showed an Activity (Mus musculus [1]) of 85% and an Activity (Mus musculus [2]) of 174%.
